# “Also recorded” adds a separate entry of the source.
# Columns and labels:
# [1] = system: primary human keratinocytes; experiment: Gene expression by quantitative PCR in primary human keratinocytes treated with erlotinib and/or ivermectin +/- TNF-α/IL-1β; assay type: cell-based
# Protocol: A study was carried out on primary human keratinocytes in vitro, in order to determine the effect of ivermectin on the regulation of genes of which the expression has been identified as being modulated by EGFR inhibitors. Said genes identified are the pro-inflammatory chemokines CCL2, CCL5, CCL27 and CXCL14 and the cytokines of the IL-1β family, but also the genes of antimicrobial peptides RNase7, HBD3 and LL37.
# (§1) To do this, primary human keratinocytes were cultured with various concentrations of EGFR inhibitor (in this case erlotinib) each with +/− TNF-α/IL-1β, various concentrations of ivermectin alone each with +/− TNF-α/IL-1β various concentrations of erlotinib and of ivermectin each with +/− TNF-α/IL-1β. The addition of the pro-inflammatory cytokines TNFα and IL1β makes it possible to mimic the skin inflammation.
# (§2) The various concentrations used were the following: • Erlotinib: 0-0.1 μM-1 μM-10 μM (each with +/− TNF-α/IL-1β) • Ivermectin: 0-0.1 μM-1 μM-10 μM (each with +/− TNF-α/IL-1β) • Co-stimulation: • Erlotinib (0.1 μM)+Ivermectin (1 μM) (+/− TNF-α/IL-1β) • Erlotinib (0.1 μM)+Ivermectin (5 μM) (+/− TNF-α/IL-1β) • Erlotinib (1 μM)+Ivermectin (1 μM)+/− TNF-α/IL-1β) • Erlotinib (1 μM)+Ivermectin (5 μM) (+/− TNF-α/IL-1β)
# (§3) The expression of the CXCL14, CCL5 (chemokines), RNase 7, HBD3 and LL37 (antimicrobial peptides) genes was analyzed by quantitative PCR. The protein concentration of the chemokines CXCL14 and CCL5 was quantified using an ELISA assay.
# [2] = system: primary human keratinocytes; experiment: CXCL14 and CCL5 protein concentration by ELISA assay in primary human keratinocytes; assay type: cell-based
# Protocol: Another objective of the present study was to identify the effect of ivermectin on the CXCL14 and CCL5 protein level of
# as §1, §2, §3
# [3] = erlotinib without ivermectin, listed as erlitonib
# [4] = erlotinib and TNFα/IL1β, without ivermectin
# [5] = ivermectin in combination with erlotinib, +/- TNFα/IL1β
"expression of RNase 7 (gene, quantitative PCR) ([1]; erlotinib without ivermectin)",SMILES,"expression of CCL5 (gene, quantitative PCR) ([1]; erlotinib without ivermectin)","expression of CXCL14 (gene, quantitative PCR) ([1]; erlotinib without ivermectin)","expression of HBD3 (gene, quantitative PCR) ([1]; erlotinib without ivermectin)","expression of CCL5 (gene, quantitative PCR) [1, 3]","expression of CXCL14 (gene, quantitative PCR) [1, 3]","CCL5 protein concentration (ELISA) [2, 4]","CXCL14 protein concentration (ELISA) [2, 4]","expression of CCL5 (gene, quantitative PCR) [1, 5]","expression of CXCL14 (gene, quantitative PCR) [1, 5]","expression of HBD3 (gene, quantitative PCR) [1, 5]","expression of RNase 7 (gene, quantitative PCR) ([1]; ivermectin in combination with erlotinib, various concentrations)",CXCL14 protein level (ELISA) ([2]; ivermectin in combination with erlotinib and TNFα/IL1β)
greatly decreased,C#Cc1cccc(Nc2ncnc3cc(OCCOC)c(OCCOC)cc23)c1 [erlotinib],induction,induction,decreased,overexpression,overexpression,increase,increase,–,–,–,–,–
–,CC[C@H](C)[C@H]1O[C@]2(CC[C@@H]1C)C[C@@H]1C[C@@H](C/C=C(\C)[C@@H](O[C@H]3C[C@H](OC)[C@@H](O[C@H]4C[C@H](OC)[C@@H](O)[C@H](C)O4)[C@H](C)O3)[C@@H](C)/C=C/C=C3\CO[C@@H]4[C@H](O)C(C)=C[C@@H](C(=O)O1)[C@]34O)O2 [ivermectin],–,–,–,–,–,–,–,significant modification of the induction; also recorded: reduce the overexpression,significant modification of the induction; also recorded: reduce the overexpression,induce the expression,re-establish the expression of RNase 7 greatly decreased in the presence of erlotinib but also to induce a strong expression thereof,decrease the protein level

# From patent US10328094B2, “Compound from the avermectin family for treating and/or preventing folliculitis” (GALDERMA SA, priority 2015, dated 2019)
